Assay results reported in patent publication US9242943B2, “1,4 oxazines as BACE1 and/or BACE2 inhibitors” (SIENA BIOTECH S.P.A., priority 2011, dated 2016).

Key:
[1] = molecular target: BACE1 (Homo sapiens (Human), UniProt P56817); test: Cellular Aβ-lowering assay (Aβ40 ELISA, HEK293 cells expressing human APP695); assay type: cell-based; details: HEK293 cells stably transfected with human APP695; 18-20 hrs incubation; Aβ40 in supernatant; read-out: BACE1 cell act. Aβ40 IC50
Description: Cellular Aβ-Lowering Assay:
Human HEK293 cells which are stably transfected with a vector expressing a cDNA of the human APP wt gene (APP695) were used to assess the potency of the compounds in a cellular assay. The cells were seeded in 96-well microtiter plates in cell culture medium (Iscove, plus 10% (v/v) fetal bovine serum, glutamine, penicillin/streptomycin) to about 80% confluence and the compounds were added at a 10× concentration in 1/10 volume of medium without FCS containing 8% DMSO (final concentration of DMSO was kept at 0.8% v/v). After 18-20 hrs incubation at 37° C. and 5% CO2 in a humidified incubator the culture supernatant was harvested for the determination of […] concentrations. 96well ELISA plates (e.g., Nunc MaxiSorb) were coated with monoclonal antibody which specifically recognize the C-terminal end of […] (Brockhaus et al., NeuroReport 9, 1481-1486; 1998). After blocking of non-specific binding sites with e.g. 1% BSA and washing, the culture supernatants were added in suitable dilutions together with a horseradish peroxidase-coupled Aβ detection antibody (e.g., antibody 4G8, Senetek, Maryland Heights, Mo.) and incubated for 5 to 7 hrs. Subsequently the wells of the microtiter plate were washed extensively with Tris-buffered saline containing 0.05% Tween 20 and the assay was developed with tetramethylbenzidine/H2O2 in citric acid buffer. After stopping the reaction with one volume 1 N H2SO4 the reaction was measured in an ELISA reader at 450 nm wavelength. The concentrations of Aβ in the culture supernatants were calculated from a standard curve obtained with known amounts of pure Aβ peptide.

[2] = molecular target: BACE2 (Rattus norvegicus (Rat), UniProt Q6IE75); test: Assay for BACE inhibition by measuring cellular TMEM27 cleavage (INS-TMEM27 cells, ELISA); assay type: cell-based; details: INS-TMEM27 (INS1e-derived) cells; shed TMEM27 in supernatant; read-out: BACE2 cell act. IC50
Sequence of BACE2 (Q6IE75 63-514): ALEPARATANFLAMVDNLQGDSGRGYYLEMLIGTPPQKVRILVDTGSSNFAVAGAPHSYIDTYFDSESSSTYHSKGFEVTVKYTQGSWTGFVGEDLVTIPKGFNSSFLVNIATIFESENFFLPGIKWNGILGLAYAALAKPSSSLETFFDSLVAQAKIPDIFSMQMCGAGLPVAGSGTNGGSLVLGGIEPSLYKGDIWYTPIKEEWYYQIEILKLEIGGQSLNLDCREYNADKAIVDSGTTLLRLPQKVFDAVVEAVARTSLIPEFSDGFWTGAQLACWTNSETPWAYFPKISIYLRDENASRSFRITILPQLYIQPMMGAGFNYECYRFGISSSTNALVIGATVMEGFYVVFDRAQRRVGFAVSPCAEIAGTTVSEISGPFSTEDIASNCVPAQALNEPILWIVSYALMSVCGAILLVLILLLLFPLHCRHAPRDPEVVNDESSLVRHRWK
Text: Assay for BACE Inhibition by Measuring Cellular TMEM27 Cleavage:
The assay uses the principle of inhibition of human TMEM27 cleavage by endogenous cellular BACE2 in the Ins1e rat cell line and shedding from the cell surface into the culture medium, followed by detection in an ELISA assay. Inhibition of BACE2 prevents the cleavage and shedding in a dose-dependent manner
The stable cell line “INS-TMEM27” represents an INS1e-derived cell line with inducible expression (using the TetOn system) of full-length hTMEM27 in a doxycycline-dependent manner. The cells are cultured throughout the experiment in RPMI1640 +Glutamax (Invitrogen) Penicillin/Streptomycin, 10% Fetal bovine serum, […], […], 100 micrograms/ml G418 and 100 microgram/ml hygromycin and are grown inadherent culture at 37° C. in a standard CO2 cell culture incubator.
INS-TMEM27 cells are seeded in 96-well plates. After 2 days in culture, BACE2 inhibitor is added in a range of concentrations as required by the assay and after a further two hours, doxycycline is added to a final concentration of 500 ng/ml. The cells are incubated for a further 46 hours and the supernatant harvested for detection of shed TMEM27.
An ELISA assay (using a pair of mouse anti-human-TMEM27 antibodies, raised against the extracellular domain of TMEM27) is used for detection of TMEM27 in the culture medium. An EC50 for BACE2 inhibition is calculated using the ELISA readout for each inhibitor concentration with standard curve-fitting software such as XLFit for the Excel spreadsheet program.

Sequence of BACE1 (P56817 46-501): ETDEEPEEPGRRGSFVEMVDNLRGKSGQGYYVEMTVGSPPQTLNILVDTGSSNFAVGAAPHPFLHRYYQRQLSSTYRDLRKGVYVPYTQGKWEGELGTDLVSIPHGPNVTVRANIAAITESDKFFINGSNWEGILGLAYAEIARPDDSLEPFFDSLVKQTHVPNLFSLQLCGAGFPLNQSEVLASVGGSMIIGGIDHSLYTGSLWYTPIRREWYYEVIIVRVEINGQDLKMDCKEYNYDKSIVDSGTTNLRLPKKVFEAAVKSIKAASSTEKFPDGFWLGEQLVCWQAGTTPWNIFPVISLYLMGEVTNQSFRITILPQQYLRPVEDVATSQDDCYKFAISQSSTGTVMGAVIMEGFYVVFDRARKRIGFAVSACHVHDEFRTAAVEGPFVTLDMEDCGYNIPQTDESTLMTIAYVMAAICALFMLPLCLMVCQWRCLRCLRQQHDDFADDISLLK

Compound | IC50 [1] [nM] | IC50 [2] [nM]
CC1(c2cccc(NCc3ccc(Cl)cc3)c2)COCC(N)=N1 (centres unmarked) [Example 2, 5-[3-(4-Chloro-benzylamino)-phenyl]-5-methyl-5,6-dihydro-2H-[1,4]oxazin-3-ylamine] | 450 | 
CCCCNc1ccc(F)c([C@]2(C)COCC(N)=N2)c1 [Example 5, (R)-5-(5-Butylamino-2-fluoro-phenyl)-5-methyl-5,6-dihydro-2H-[1,4]oxazin-3-ylamine] | 340 | 
CC(C)CCNc1ccc(F)c([C@]2(C)COCC(N)=N2)c1 [Example 6, (R)-5-(2-fluoro-5-(isopentylamino)phenyl)-5-methyl-5,6-dihydro-2H-1,4-oxazin-3-amine] | 1360 | 605
CC(C)C(C)Nc1ccc(F)c([C@]2(C)COCC(N)=N2)c1 (stereo partly drawn) [Example 8, (5R)-5-(2-fluoro-5-(3-methylbutan-2-ylamino)phenyl)-5-methyl-5,6-dihydro-2H-1,4-oxazin-3-amine] | 2190 | 
C[C@@]1(c2cc(NCC(F)(F)F)ccc2F)COCC(N)=N1 [Example 9, (R)-5-(2-fluoro-5-(2,2,2-trifluoroethylamino)phenyl)-5-methyl-5,6-dihydro-2H-1,4-oxazin-3-amine] | 350 | 
C[C@@]1(c2cc(NCC(F)F)ccc2F)COCC(N)=N1 [Example 10, (R)-5-[5-(2,2-Difluoro-ethylamino)-2-fluoro-phenyl]-5-methyl-5,6-dihydro-2H-[1,4]oxazin-3-ylamine] | 410 | 
C[C@@]1(c2cc(NCCC(F)(F)F)ccc2F)COCC(N)=N1 [Example 12, (R)-5-(2-fluoro-5-(3,3,3-trifluoropropylamino)phenyl)-5-methyl-5,6-dihydro-2H-1,4-oxazin-3-amine] | 1090 | 2900
CSCCCNc1ccc(F)c([C@]2(C)COCC(N)=N2)c1 [Example 13, (R)-5-(2-fluoro-5-(3-(methylthio)propylamino)phenyl)-5-methyl-5,6-dihydro-2H-1,4-oxazin-3-amine] | 310 | 
C[C@@]1(c2cc(NC3CCC3)ccc2F)COCC(N)=N1 [Example 14, (R)-5-(5-Cyclobutylamino-2-fluoro-phenyl)-5-methyl-5,6-dihydro-2H-[1,4]oxazin-3-ylamine] | 260 | 1170
C[C@@]1(c2cc(NC3CCCC3)ccc2F)COCC(N)=N1 [Example 15, (R)-5-(5-(cyclopentylamino)-2-fluorophenyl)-5-methyl-5,6-dihydro-2H-1,4-oxazin-3-amine] | 120 | 170
C[C@@]1(c2cc(NC3CCOC3)ccc2F)COCC(N)=N1 (stereo partly drawn) [Example 18, (R)-5-[2-Fluoro-5-(tetrahydro-furan-3-ylamino)-phenyl]-5-methyl-5,6-dihydro-2H-[1,4]oxazin-3-ylamine] | 320 | 3390
C[C@@]1(c2cc(N[C@H]3CCC[C@@H]3O)ccc2F)COCC(N)=N1 [Example 19, (1S,2S)-2-(3-((R)-5-amino-3-methyl-3,6-dihydro-2H-1,4-oxazin-3-yl)-4-fluorophenylamino)cyclopentanol] | 1210 | 3420
C[C@@]1(c2cc(N[C@H]3CCC[C@H]3O)ccc2F)COCC(N)=N1 [Example 20, (1R,2S)-2-(3-((R)-5-amino-3-methyl-3,6-dihydro-2H-1,4-oxazin-3-yl)-4-fluorophenylamino)cyclopentanol] | 610 | 2270
C[C@@]1(c2cc(NCC3CC3)ccc2F)COCC(N)=N1 [Example 21, (R)-5-(5-(cyclopropylmethylamino)-2-fluorophenyl)-5-methyl-5,6-dihydro-2H-1,4-oxazin-3-amine] | 130 | 279
C[C@@]1(c2cc(NC[C@H]3CCCO3)ccc2F)COCC(N)=N1 [Example 22, (R)-5-(2-fluoro-5-(((R)-tetrahydrofuran-2-yl)methylamino)phenyl)-5-methyl-5,6-dihydro-2H-1,4-oxazin-3-amine] | 1110 | 2430
CC(C)C(Nc1ccc(F)c([C@]2(C)COCC(N)=N2)c1)c1ccc(Cl)cn1 (stereo partly drawn) [Example 23, (R)-5-{5-[1-(5-Chloro-pyridin-2-yl)-2-methyl-propylamino]-2-fluoro-phenyl}-5-methyl-5,6-dihydro-2H-[1,4]oxazin-3-ylamine] | 3710 | 1660
CC1(c2cccc(Nc3cccc4cc(Cl)cnc34)c2)COCC(N)=N1 (centres unmarked) [Example 24, [3-(5-Amino-3-methyl-3,6-dihydro-2H-[1,4]oxazin-3-yl)-phenyl]-(3-chloro-quinolin-8-yl)-amine] | 250 | 18
C[C@@]1(c2cc(Nc3cccc4cc(Cl)cnc34)ccc2F)COCC(N)=N1 [Example 26, [3-((R)-5-Amino-3-methyl-3,6-dihydro-2H-[1,4]oxazin-3-yl)-4-fluoro-phenyl]-(3-chloro-quinolin-8-yl)-amine] | 160 | 77
C[C@@]1(c2cc(Nc3cc(F)cc4cc(Cl)cnc34)ccc2F)COCC(N)=N1 [Example 28, [3-((R)-5-Amino-3-methyl-3,6-dihydro-2H-[1,4]oxazin-3-yl)-4-fluoro-phenyl]-(3-chloro-6-fluoro-quinolin-8-yl)-amine] | 44 | 
C[C@@]1(c2cc(Nc3cccc4cc(OCCF)cnc34)ccc2F)COCC(N)=N1 [Example 30, [3-((R)-5-Amino-3-methyl-3,6-dihydro-2H-[1,4]oxazin-3-yl)-4-fluoro-phenyl]-[3-(2-fluoro-ethoxy)-quinolin-8-yl]-amine] | 4770 | 
C[C@@]1(c2cc(Nc3cc(F)cc4cc(OCC5CC5)cnc34)ccc2F)COCC(N)=N1 [Example 31, [3-((R)-5-Amino-3-methyl-3,6-dihydro-2H-[1,4]oxazin-3-yl)-4-fluoro-phenyl]-(3-cyclopropylmethoxy-6-fluoro-quinolin-8-yl)-amine] | 6900 | 
C[C@@]1(c2cc(Nc3cccc4cc(OCC(F)(F)F)cnc34)ccc2F)COCC(N)=N1 [Example 32, [3-((R)-5-Amino-3-methyl-3,6-dihydro-2H-[1,4]oxazin-3-yl)-4-fluoro-phenyl]-[3-(2,2,2-trifluoro-ethoxy)-quinolin-8-yl]-amine] | 2360 | 
COc1cnc2c(Nc3cccc(C4(C)COCC(N)=N4)c3)cccc2c1 (centres unmarked) [Example 37, [3-(5-Amino-3-methyl-3,6-dihydro-2H-[1,4]oxazin-3-yl)-phenyl]-(3-methoxy-quinolin-8-yl)-amine] |  | 120
CC1(c2cccc(NC3CCc4cc(Cl)ccc43)c2)COCC(N)=N1 (centres unmarked) [Example 39, 5-[3-(5-Chloro-indan-1-ylamino)-phenyl]-5-methyl-5,6-dihydro-2H-[1,4]oxazin-3-ylamine] | 180 | 
C[C@@]1(c2cc(Nc3ccccc3OCC(F)(F)F)ccc2F)COCC(N)=N1 [Example 42, (R)-5-{2-Fluoro-5-[2-(2,2,2-trifluoro-ethoxy)-phenylamino]-phenyl}-5-methyl-5,6-dihydro-2H-[1,4]oxazin-3-ylamine] | 5200 | 
CC1(c2cccc(Nc3ccccc3OC(F)F)c2)COCC(N)=N1 (centres unmarked) [Example 44, 5-[3-(2-Difluoromethoxy-phenylamino)-phenyl]-5-methyl-5,6-dihydro-2H-[1,4]oxazin-3-ylamine] | 890 | 
C[C@@]1(c2cc(NCc3nn(C(F)F)cc3Cl)ccc2F)COCC(N)=N1 [Example 45, (R)-5-{5-[(4-Chloro-1-difluoromethyl-1H-pyrazol-3-ylmethyl)-amino]-2-fluoro-phenyl}-5-methyl-5,6-dihydro-2H-[1,4]oxazin-3-ylamine] | 17 | 
CC1(c2cccc(Nc3cccc4oc(C5CC5)nc34)c2)COCC(N)=N1 (centres unmarked) [Example 46, [3-(5-Amino-3-methyl-3,6-dihydro-2H-[1,4]oxazin-3-yl)-phenyl]-(2-cyclopropyl-benzooxazol-4-yl)-amine] |  | 300
(R)-5-{2-Fluoro-5-[2-(2-fluoro-ethoxy)-phenylamino]-phenyl}-5-methyl-5,6-dihydro-2H-[1,4]oxazin-3-ylamine [Example 43] | 3200 | 
